{"source": "patent US10053422B2", "about": "“Compounds for the treatment of mTOR pathway related diseases” (Pitney Pharmaceuticals Pty Limited, priority 2012, dated 2018)", "key": {"[1]": {"test_system": "PARP-1 in OVCAR-3 and A2780 cells", "test": "Western blot of PARP and cleaved PARP", "format": "cell-based, human", "details": "MPL 0, 5, 10, 25 μM; 24, 48 or 72 h", "experimental": "OVCAR-3 and A2780 cells grown under cell culture conditions were incubated with various concentrations of MPL [0, 5, 10, 25 μM] for 24, 48 or 72 hours. Cell lysates were then prepared and analysed by western blotting for the determination of PARP and cleaved PARP.\nExposure of OVCAR-3 or A2780 cells to MPL (0, 5, 10, 25 μM) for 24, 48 or 72 h causes cleavage of PARP, which leads to cellular disassembly and serves as a marker of dying cells.\nProtein expression in cells was determined using western blot analysis. After treatment with the indicated concentrations of MPL, cell lysates were prepared and probed with antibodies for cdk2, cdk4, cyclin A, cyclin E, PARP-1 (1:1000 dilutions; Cell Signalling Technology), and p53 (1:200 dilutions; Santa Cruz Biotechnology).\nTo investigate whether the MPL-induced cell death involves cleavage of PARP, western blot analysis of lysates of MPL-treated cells for PARP-1 and cleaved PARP-1 was carried out. Cleavage of PARP-1 promotes apoptosis by preventing DNA-repair-induced survival."}, "nicotinic receptors": {"test_system": "nicotinic receptors", "test": "MPL antiproliferative effect after pre-treatment with nicotinic agonists or antagonists", "format": "cell-based", "details": "MPL 5 μM, 72 h; 30 min pre-treatment", "experimental": "Cells were pre-treated (30 min) with increasing concentrations of nicotine, carbachol or the receptor antagonists, atropine, mecamylamine, tubocurarine, and α-bungarotoxin. MPL (5 μM) was added and left in the cell culture incubator for 72 h. Each drug concentration was tested in quadruplicate and each experiment was repeated twice. Combine values (mean±SEM) are presented as % control.\nIn brief, MPL and MPL-SO2 were tested in vitro against a wide range of cancer cell-lines with extensively different disease characteristics. For further detailed studies, human ovarian cancer cell lines OVCAR-3 and A2780 were chosen. Additionally, normal human ovarian surface epithelial cells (HOSE) and were cultured in the presence of MPL (0, 5, 10, 25, 50 and 100 μM) for 72 h. Cell viability was assessed using Trypan blue assay (FIG. 9). Similarly, effect of MPL on the growth of normal epithelial, endothelial, embryonic and fetal cells were investigated (FIG. 10) while cell proliferation was assessed using the SRB assay (FIG. 11). Control (vehicle treated) cells were taken to present 100% proliferation and the MPL treated groups are expressed as percentage of control±SEM. Each drug concentration was tested in quadruplicate and each experiment was repeated at least twice. For statistical comparisons, each drug treated group is compared to the control group using Student's t test. […]"}}, "note": "“Also recorded” adds a separate entry of the source.", "data": [{"smiles": "C[C@](C#N)(COc1cc(C#N)ccc1C(F)(F)F)NC(=O)c1ccc(SC(F)(F)F)cc1", "note": "[MPL, N-[(1S)-1-Cyano-2-(5-cyano-2-trifluoromethyl-phenoxy)-1-methyl-ethyl]-4-trifluoromethylsulfanyl-benzamide]", "values": [{"measurement": "cleavage of PARP", "setting": "[1]", "result": "PARP was cleaved; also recorded: highly induced cleavage of PARP"}, {"measurement": "MPL-induced inhibition after pre-treatment with nicotinic agonists or antagonists", "setting": "nicotinic receptors", "result": "neither positively nor negatively affected"}]}]}
